From patent US20020052325A1, “Anticonvulsant derivatives useful in maintaining weight loss” (priority 1999, published 2002)
Like-named read-outs stand apart in the source and are kept apart here.

Legend:
[1] = test system: simple and complex partial seizures and secondarily generalized seizures; conditions: adjunctive therapy or monotherapy, human epilepsy; cited from earlier work
[2] = Weight loss in patients treated with topiramate as adjunctive therapy in epilepsy; type: in vivo, human
Method: Further, carboxylic acids and aldehydes of the formulae RCOOH and RCHO may be reduced to compounds of the formula RCH2OH by standard reduction techniques, e.g. reaction with lithium aluminum hydride, sodium borohydride or borane-THF complex in an inert solvent such a diglyme, THF or toluene at a temperature of about 0° to 100° C., e.g. as described by H. O. House in “Modern Synthetic Reactions”, 2nd Ed., pages 45 to 144 (1972). In patients treated with topiramate as an adjunctive therapy in epilepsy (n=1319), mean weight loss of 4.6% of baseline weight was observed. The mean daily dosage of topiramate was 621.9 mg/day and the mean duration of dosing was 688.8 days. […] On topiramate treatment, there is gradual weight loss over time, with maintenance of the weight lost to 24 months of therapy; thus the mean percentage decrease in weight for all subjects (n=1319) was 4.6%, with similar weight loss maintained at one year (4.9%) and two years (4.5%) of treatment. This pattern is also seen in those patients with weight in excess of 100 kg at baseline (n=127), who lost a mean of 8.4% weight overall, with loss of 9.4% at one year and 9.9% at two years.

[3] = test system: seizures; conditions: several rodent models of epilepsy; cited from earlier work
[4] = test system: seizures; conditions: animal model of kindled epilepsy; cited from earlier work
[5] = overweight individuals; cited from earlier work

SMILES: CC1(C)O[C@@H]2[C@@H](CO[C@@]3(COS(N)(=O)=O)OC(C)(C)O[C@@H]23)O1 [topiramate, 2,3:4,5-bis-O-(1-methylethylidene)-β-D-fructopyranose sulfamate]
- efficacy in treating seizures [1]: effective as adjunctive therapy or as monotherapy
- mean percentage decrease in weight ([2]; all subjects (n=1319), at one year of treatment): 4.9%
- mean percentage decrease in weight ([2]; all subjects (n=1319), at two years of treatment): 4.5%
- mean weight loss of baseline weight ([2]; all subjects (n=1319), overall, mean daily dosage 621.9 mg/day, mean duration of dosing 688.8 days): 4.6%
- mean decrease in weight ([2]; subjects >100 kg at baseline (n=127), at one year): 9.4%
- mean decrease in weight ([2]; subjects >100 kg at baseline (n=127), at two years): 9.9%
- mean decrease in weight ([2]; subset of subjects weighing >100 kg at baseline (n=127), overall, mean daily dose 873.5 mg/day, mean duration of dosing 881.8 days): 8.4%
- seizure block [3]: effectively block seizures
- seizure block [4]: effectively block seizures
- weight reduction [5]: effectively reduce the weight
